Results: US20130102556A1, “Use of N1,N4-bis[3-(Ethylamino)Propyl]-2-Butene-1,4-Diamine Compounds in Combination with Epigenetic-Acting Pharmaceuticals for Enhanced Cancer Therapy” (THE JOHNS HOPKINS UNIVERSITY, priority 2010, published 2013)

Key:
H3K4me2 = experiment: Global H3K4me2 histone mark in Calu-6 cells, Western blot of nuclear protein; format: cell-based, human; settings: Calu-6, increasing doses (1, 5, 10 μM), 24 hours of treatment
acetylated H3K9 (AcH3K9) = experiment: Global acetylated H3K9 histone mark in Calu-6 cells, Western blot of nuclear protein; format: cell-based, human; settings: Calu-6, increasing doses, 24 and 48 hours

CCNCCCNC/C=C\CNCCCNCC [PG-11047, (2Z)-N1,N4-bis[3-(ethylamino)propyl]-2-butene-1,4-diamine]
increase in H3K4me2 protein (H3K4me2): 2-4 fold | increase in global amounts of acetylated H3K9 protein (acetylated H3K9 (AcH3K9)): 2-3 fold
